Measurements as given in the NIST ThermoML archive (doi:10.1021/acs.jced.7b00773).

Conditions: Liquid; for viscosity: Concentric cylinders viscometry

CCCCCCn1cc[n+](C)c1.N#C[B-](C#N)(C#N)C#N [1-hexyl-3-methylimidazolium tetracyanoborate]
100 kPa
Conditions | viscosity [mPa·s]
293.15 K | 63.69
303.15 K | 38.1
313.15 K | 24.73
323.15 K | 17.12
333.15 K | 12.48
343.15 K | 9.467
353.15 K | 7.423
363.15 K | 5.982
373.15 K | 4.929

Conditions | mass density [kg/m3]
293.15 K, 100 kPa, Vibrating tube method | 994.4
303.15 K, 100 kPa, Vibrating tube method | 987.3
311.8 K, 10000 kPa, Bellows volumetry | 986.2
311.8 K, 20000 kPa, Bellows volumetry | 991.5
311.8 K, 30000 kPa, Bellows volumetry | 996.5
311.8 K, 40000 kPa, Bellows volumetry | 1001.3
311.8 K, 50000 kPa, Bellows volumetry | 1005.9
311.8 K, 60000 kPa, Bellows volumetry | 1010.3
311.8 K, 70000 kPa, Bellows volumetry | 1014.5
311.8 K, 80000 kPa, Bellows volumetry | 1018.6
311.8 K, 90000 kPa, Bellows volumetry | 1022.6
311.8 K, 100000 kPa, Bellows volumetry | 1026.5
311.8 K, 110000 kPa, Bellows volumetry | 1030.2
311.8 K, 120000 kPa, Bellows volumetry | 1034
311.8 K, 130000 kPa, Bellows volumetry | 1037.6
311.8 K, 140000 kPa, Bellows volumetry | 1041.1
311.8 K, 150000 kPa, Bellows volumetry | 1044.6
311.8 K, 160000 kPa, Bellows volumetry | 1047.9
311.8 K, 170000 kPa, Bellows volumetry | 1051.2
311.8 K, 180000 kPa, Bellows volumetry | 1054.4
311.8 K, 190000 kPa, Bellows volumetry | 1057.6
311.8 K, 200000 kPa, Bellows volumetry | 1060.7
313.15 K, 100 kPa, Vibrating tube method | 980.1
323.15 K, 100 kPa, Vibrating tube method | 973
331.8 K, 10000 kPa, Bellows volumetry | 972.5
331.8 K, 20000 kPa, Bellows volumetry | 978.1
331.8 K, 30000 kPa, Bellows volumetry | 983.3
331.8 K, 40000 kPa, Bellows volumetry | 988.5
331.8 K, 50000 kPa, Bellows volumetry | 993.3
331.8 K, 60000 kPa, Bellows volumetry | 998
331.8 K, 70000 kPa, Bellows volumetry | 1002.3
331.8 K, 80000 kPa, Bellows volumetry | 1006.7
331.8 K, 90000 kPa, Bellows volumetry | 1010.8
331.8 K, 100000 kPa, Bellows volumetry | 1014.9
331.8 K, 110000 kPa, Bellows volumetry | 1018.8
331.8 K, 120000 kPa, Bellows volumetry | 1022.6
331.8 K, 130000 kPa, Bellows volumetry | 1026.4
331.8 K, 140000 kPa, Bellows volumetry | 1030
331.8 K, 150000 kPa, Bellows volumetry | 1033.5
331.8 K, 160000 kPa, Bellows volumetry | 1037
331.8 K, 170000 kPa, Bellows volumetry | 1040.4
331.8 K, 180000 kPa, Bellows volumetry | 1043.7
331.8 K, 190000 kPa, Bellows volumetry | 1047
331.8 K, 200000 kPa, Bellows volumetry | 1050.2
333.15 K, 100 kPa, Vibrating tube method | 966
343.15 K, 100 kPa, Vibrating tube method | 959.1
351.6 K, 10000 kPa, Bellows volumetry | 959.1
351.6 K, 20000 kPa, Bellows volumetry | 965.1
351.6 K, 30000 kPa, Bellows volumetry | 970.6
351.6 K, 40000 kPa, Bellows volumetry | 976
351.6 K, 50000 kPa, Bellows volumetry | 981
351.6 K, 60000 kPa, Bellows volumetry | 985.9
351.6 K, 70000 kPa, Bellows volumetry | 990.5
351.6 K, 80000 kPa, Bellows volumetry | 995.1
351.6 K, 90000 kPa, Bellows volumetry | 999.4
351.6 K, 100000 kPa, Bellows volumetry | 1003.6
351.6 K, 110000 kPa, Bellows volumetry | 1007.6
351.6 K, 120000 kPa, Bellows volumetry | 1011.5
351.6 K, 130000 kPa, Bellows volumetry | 1015.4
351.6 K, 140000 kPa, Bellows volumetry | 1019.2
351.6 K, 150000 kPa, Bellows volumetry | 1022.9
351.6 K, 160000 kPa, Bellows volumetry | 1026.4
351.6 K, 170000 kPa, Bellows volumetry | 1029.9
351.6 K, 180000 kPa, Bellows volumetry | 1033.3
351.6 K, 190000 kPa, Bellows volumetry | 1036.7
351.6 K, 200000 kPa, Bellows volumetry | 1040
353.15 K, 100 kPa, Vibrating tube method | 952.2
363.15 K, 100 kPa, Vibrating tube method | 945.4
371.8 K, 10000 kPa, Bellows volumetry | 945.8
371.8 K, 20000 kPa, Bellows volumetry | 952
371.8 K, 30000 kPa, Bellows volumetry | 957.9
371.8 K, 40000 kPa, Bellows volumetry | 963.6
371.8 K, 50000 kPa, Bellows volumetry | 969
371.8 K, 60000 kPa, Bellows volumetry | 974
371.8 K, 70000 kPa, Bellows volumetry | 978.8
371.8 K, 80000 kPa, Bellows volumetry | 983.6
371.8 K, 90000 kPa, Bellows volumetry | 988.1
371.8 K, 100000 kPa, Bellows volumetry | 992.4
371.8 K, 110000 kPa, Bellows volumetry | 996.7
371.8 K, 120000 kPa, Bellows volumetry | 1000.8
371.8 K, 130000 kPa, Bellows volumetry | 1004.8
371.8 K, 140000 kPa, Bellows volumetry | 1008.7
371.8 K, 150000 kPa, Bellows volumetry | 1012.5
371.8 K, 160000 kPa, Bellows volumetry | 1016.1
371.8 K, 170000 kPa, Bellows volumetry | 1019.7
371.8 K, 180000 kPa, Bellows volumetry | 1023.3
371.8 K, 190000 kPa, Bellows volumetry | 1026.7
371.8 K, 200000 kPa, Bellows volumetry | 1030.1
373.15 K, 100 kPa, Vibrating tube method | 938.7
392 K, 10000 kPa, Bellows volumetry | 932.8
392 K, 20000 kPa, Bellows volumetry | 939.4
392 K, 30000 kPa, Bellows volumetry | 945.7
392 K, 40000 kPa, Bellows volumetry | 951.6
392 K, 50000 kPa, Bellows volumetry | 957.2
392 K, 60000 kPa, Bellows volumetry | 962.5
392 K, 70000 kPa, Bellows volumetry | 967.6
392 K, 80000 kPa, Bellows volumetry | 972.6
392 K, 90000 kPa, Bellows volumetry | 977.3
392 K, 100000 kPa, Bellows volumetry | 981.8
392 K, 110000 kPa, Bellows volumetry | 986.3
392 K, 120000 kPa, Bellows volumetry | 990.5
392 K, 130000 kPa, Bellows volumetry | 994.6
392 K, 140000 kPa, Bellows volumetry | 998.6
392 K, 150000 kPa, Bellows volumetry | 1002.5
392 K, 160000 kPa, Bellows volumetry | 1006.3
392 K, 170000 kPa, Bellows volumetry | 1010
392 K, 180000 kPa, Bellows volumetry | 1013.6
392 K, 190000 kPa, Bellows volumetry | 1017.2
392 K, 200000 kPa, Bellows volumetry | 1020.6
412.1 K, 10000 kPa, Bellows volumetry | 920.1
412.1 K, 20000 kPa, Bellows volumetry | 927
412.1 K, 30000 kPa, Bellows volumetry | 933.7
412.1 K, 40000 kPa, Bellows volumetry | 939.9
412.1 K, 50000 kPa, Bellows volumetry | 945.8
412.1 K, 60000 kPa, Bellows volumetry | 951.4
412.1 K, 70000 kPa, Bellows volumetry | 956.7
412.1 K, 80000 kPa, Bellows volumetry | 961.8
412.1 K, 90000 kPa, Bellows volumetry | 966.8
412.1 K, 100000 kPa, Bellows volumetry | 971.4
412.1 K, 110000 kPa, Bellows volumetry | 976
412.1 K, 120000 kPa, Bellows volumetry | 980.4
412.1 K, 130000 kPa, Bellows volumetry | 984.7
412.1 K, 140000 kPa, Bellows volumetry | 988.8
412.1 K, 150000 kPa, Bellows volumetry | 992.8
412.1 K, 160000 kPa, Bellows volumetry | 996.7
412.1 K, 170000 kPa, Bellows volumetry | 1000.6
412.1 K, 180000 kPa, Bellows volumetry | 1004.3
412.1 K, 190000 kPa, Bellows volumetry | 1007.9
412.1 K, 200000 kPa, Bellows volumetry | 1011.5
